Assays:
[1] = Study 2: pharmacokinetic drug-drug interaction GLPG0259 / methotrexate; format: in vivo, human; conditions: methotrexate 7.5 mg
[2] = cited from earlier work

CN(Cc1cnc2nc(N)nc(N)c2n1)c1ccc(C(=O)N[C@@H](CCC(=O)O)C(=O)O)cc1 [methotrexate]
Cmax point estimate, with vs without GLPG0259 ([1]; day 14 (GLPG0259 50 mg) vs day -7): 89.63% | AUC∞ point estimate, with vs without GLPG0259 ([1]; day 14 vs day -7): 118.22% | t1/2,λz point estimate, with vs without GLPG0259 ([1]; day 14 vs day -7): 110.64% | t1/2,λz, range of boundary values reported in the literature [2]: 6 to 69 h
